In patent US4642341A, “Carbapenem antibiotics” (priority 1985, dated 1987):
≈ marks a conversion by molar mass, not a printed value. Read-outs that look alike come from different tables or passages of the source.

What was measured:
S. aureus A-9606 = assay: Protective effect, intramuscular treatment of infected mice; assay type: in vivo; conditions: Staphylococcus aureus, A9606, im; i.m.; challenge 1 × 10^9; read-out: PD50 /Treatment
Description: (§1) The PD50 (dose in mg/kg required to give protection to 50% of the infected mice) is indicated.
(§2) Treatment Schedule: Mice were treated i.m. with drugs 0 and 2 hours
(§3) 3.5 hours (all others); 5 mice were used for each test.

P. mirabilis A-9900 [1] = assay: animal or person; conditions: Proteus mirabilis, A9900, in Mus musculus, im, read-out: PD50 /Treatment, i.m.; challenge 4 × 10^6
Description: as §1, §2, §3

P. rettgeri A22424 = assay: Minimum Inhibitory Concentration, tube dilution; assay type: cell-based; conditions: Providencia rettgeri, overnight 37° C., read-out: MIC
B. fragilis A22696 = assay: Minimum Inhibitory Concentration, tube dilution; assay type: cell-based; conditions: Bacteroides fragilis, overnight 37° C., read-out: MIC
E. coli A15119 = assay: Minimum Inhibitory Concentration, tube dilution; assay type: cell-based; conditions: Escherichia coli, A15119, 10^-4 dil.
K. pneumoniae A-9664 [2] = assay: Protective effect, intramuscular treatment of infected mice; assay type: in vivo; conditions: Klebsiella pneumoniae, A9664, im; i.m.; challenge 7 × 10^6; read-out: PD50 /Treatment
Description: as §1, §2, §3

H. influenzae A20178 = assay: Minimum Inhibitory Concentration, tube dilution; assay type: cell-based; conditions: Haemophilus influenzae, overnight 37° C.
E. coli A20341-1 = assay: Minimum Inhibitory Concentration, tube dilution; assay type: cell-based; conditions: Escherichia coli, A203411, 10^-4
[3] = tested on: S. aureus A-9606 (Pen-res.); assay: Minimum Inhibitory Concentration, tube dilution; assay type: cell-based; conditions: Staphylococcus aureus
S. pneumoniae A-9585 = assay: Minimum Inhibitory Concentration, tube dilution; assay type: cell-based; conditions: Streptococcus pneumoniae, A9585, overnight 37° C.
H. influenzae A21522 = assay: Minimum Inhibitory Concentration, tube dilution; assay type: cell-based; conditions: Haemophilus influenzae, overnight 37° C.
M. morganii A15149 = assay: Protective effect, intramuscular treatment of infected mice; assay type: in vivo; conditions: Morganella morganii, A15149, im; i.m.; challenge 7 × 10^5; read-out: PD50 /Treatment
Description: as §1, §2, §3

P. aeruginosa A20481 = assay: as above; assay type: in vivo; conditions: Pseudomonas aeruginosa, A20481, im; i.m.; challenge 3 × 10^4; read-out: PD50 /Treatment
Description: as §1, §2, §3

S. pyogenes A-9604 = assay: Minimum Inhibitory Concentration, tube dilution; assay type: cell-based; conditions: Streptococcus pyogenes, A9604, overnight 37° C.
P. aeruginosa A-9843a [4] = assay: Protective effect, intramuscular treatment of infected mice; assay type: in vivo; conditions: Pseudomonas aeruginosa, A9843A, im; challenge 3 × 10^4; Historical data; read-out: PD50 /Treatment
Description: as §1, §2, §3

S. marcescens A20335 = assay: as above; assay type: in vivo; conditions: Serratia marcescens, A20335, im; i.m.; challenge 9 × 10^6; read-out: PD50 /Treatment
Description: as §1, §2, §3

H. influenzae A-9833 = assay: Minimum Inhibitory Concentration, tube dilution; assay type: cell-based; conditions: Haemophilus influenzae, A9833
in vivo = conditions: mouse
E. cloacae A-9569 = assay: animal or person; conditions: Enterobacter cloacae, A9569, in Mus musculus, im, read-out: PD50 /Treatment
Description: as §1, §2, §3

S. aureus A-9537 = assay: Minimum Inhibitory Concentration, tube dilution; assay type: cell-based; conditions: Staphylococcus aureus, read-out: MIC
[5] = Urinary recovery in mice after intramuscular administration; assay type: in vivo; conditions: mouse, urine, im, 20 mg/kg, 20 mg/kg i.m., read-out: Percentage of Dose Recovered (urine)
Description: | a single test; 4 mice per compound.

P. vulgaris A21559 = assay: Minimum Inhibitory Concentration, tube dilution; assay type: cell-based; conditions: Proteus vulgaris, A21559, overnight 37° C.
[6] = Toxicity after intracranial administration to mice; conditions: mouse, in vivo
P. aeruginosa A20599 = assay: Protective effect, intramuscular treatment of infected mice; assay type: in vivo; conditions: Pseudomonas aeruginosa, A20599, im; i.m.; challenge 9 × 10^4; read-out: PD50 /Treatment
Description: as §1, §2, §3

P. aeruginosa A-9843A [7] = assay: Minimum Inhibitory Concentration, tube dilution; assay type: cell-based; conditions: Pseudomonas aeruginosa, A9843A
S. faecalis A20688 = assay: Minimum Inhibitory Concentration, tube dilution; assay type: cell-based; conditions: Enterococcus faecalis
[8] = Half-life in phosphate buffer pH 7.4; assay type: physicochemical; conditions: phosphate buffer
Description: To a solution of p-nitrobenzyl 3-[2-(1-pyridinium)ethylthio)]-6α[1-(R)-hydroxyethyl]-7-oxo-1-azabicyclo(3.2.0)hept-2-ene-carboxylate diphenylphosphate (0.16 g, 0.22 mmol) in wet tetrahydrofuran (10mL) was added ether (10mL), potassium phosphate monobasic-sodium hydroxide buffer pH 7.4 (16 mL, 0.05 M) and 10% palladium on charcoal (0.16 g). The resulting mixture was hydrogenated under 40 psi for 1 h at 25° C. The two phases were separated and the organic phase was extracted with water (2×3 mL). The aqeuous solutions were combined, washed with ether (2×10 ml) and poured on top of a column (1.5×6.2 cm) pf μ-bondapak C-18 after the traces of organic solvents have been removed under vacuum. Elution of the column with water gave after lyophylization of the appropriate fractions a yellowish powder 0.062 g (84%), ir (KBr) .nu.max : 3700-3000 (OH), 1755 (C--O of β-lactam), 1630 (pyridinium), 1590 cm^-1 (carboxylate), ^1 Hmr (D2 O): 1.22 (3H, d, J=6.4 Hz, CH3 CHOH), 2.92 (d, J=9.1 Hz, H-4), 2.97 (d, J=9.1 Hz, H-4), 3.20 (dd, J=2.5 Hz, J=6.1 Hz, H-6), 3.44 (t, J=6.0 Hz, CH2 S), 3.93 (dd, J=9.1 Hz, J=2.5 Hz, H-5), 4.82 (t, J=6.0 Hz, CH2 N^+), 8.04 (m, Hm of pyridinium), 8.5 (m, Hp of pyridinium), 8.82 (dd, J=3.2. Hz, J=1.1 Hz, Ho of pyridinium), uv (H2 O) λ max : 259 (ε5800), 296 (ε7030) mμ, .tau.1/2 =13.5 h (measured at a concentration of 10^-4 M in phosphate buffer pH 7.4 at 36.8° C.).

H. influenzae A21518 = assay: Minimum Inhibitory Concentration, tube dilution; assay type: cell-based; conditions: Haemophilus influenzae, overnight 37° C.
[9] = Blood levels in mice after intramuscular administration; assay type: in vivo; conditions: mouse, im, 20 mg/kg i.m.
Description: a single test; 4 mice used per compound.

P. rettgeri A15167-2 = assay: Protective effect, intramuscular treatment of infected mice; assay type: in vivo; conditions: Providencia rettgeri, A151672, im; i.m.; challenge 3 × 10^7; read-out: PD50 /Treatment
Description: as §1, §2, §3

S. marcescens A20019 = assay: Minimum Inhibitory Concentration, tube dilution; assay type: cell-based; conditions: Serratia marcescens, A20019, overnight 37° C.; table 6
[10] = tested on: S. aureus A15097 (Meth-res.); assay: Minimum Inhibitory Concentration, tube dilution; assay type: cell-based; conditions: Staphylococcus aureus, table 6
P. mirabilis A9900 = assay: Protective effect, intramuscular treatment of infected mice (table 8); assay type: in vivo; conditions: Proteus mirabilis, A9900, im; i.m. 0 and 2 h post-infection; 4×10^7 organisms i.p.; read-out: PD50 /treatment
Description: as §1

P. aeruginosa A9843A = assay: animal or person; assay type: in vivo, mice; conditions: Pseudomonas aeruginosa, in Mus musculus, im, read-out: PD50 /treatment
Description: as §1

P. mirabilis A-9900 [11] = assay: Minimum Inhibitory Concentration, tube dilution; assay type: cell-based; conditions: Proteus mirabilis, A9900, overnight 37° C.; table 6
K. pneumoniae A-9664 [12] = assay: Minimum Inhibitory Concentration, tube dilution; assay type: cell-based; conditions: Klebsiella pneumoniae, A9664, overnight 37° C.; table 6
M. morganii A15153 = assay: Minimum Inhibitory Concentration, tube dilution; assay type: cell-based; conditions: Morganella morganii, A15153, overnight 37° C.; table 6
P. aeruginosa A21213 = assay: Minimum Inhibitory Concentration, tube dilution; assay type: cell-based; conditions: Pseudomonas aeruginosa, A21213, overnight 37° C.; table 6; read-out: MIC
[13] = tested on: various Pseudomonas species; conditions: cited from earlier work

## C[C@@H](O)[C@H]1C(=O)N2C(C(=O)[O-])=C(SCC[n+]3ccccc3)C[C@H]12 [Example 1, 3-[2-(1-Pyridinium)ethylthio]-6α-[1-(R)-hydroxyethyl]-7-oxo-1-azabicyclo (3.2.0)-hept-2-ene-2-carboxylate]
S. aureus A-9606
  ED50: 0.11 mg/kg
P. mirabilis A-9900 [1]
  ED50: 19 mg/kg
P. rettgeri A22424
  MIC: 0.5 µg/mL (≈ 1.5 µM)
B. fragilis A22696
  MIC: 0.5 µg/mL (≈ 1.5 µM)
E. coli A15119
  MIC: 0.03 µg/mL (≈ 0.0897 µM)
K. pneumoniae A-9664 [2]
  ED50: 7.7 mg/kg
H. influenzae A20178
  MIC: 8 µg/mL (≈ 23.9 µM)
E. coli A20341-1
  MIC: 0.03 µg/mL (≈ 0.0897 µM)
[3]; Pen-res.
  MIC: 0.016 µg/mL (≈ 0.0478 µM)
S. pneumoniae A-9585
  MIC: 0.002 µg/mL (≈ 0.00598 µM)
H. influenzae A21522
  MIC: 8 µg/mL (≈ 23.9 µM)
M. morganii A15149
  ED50: 4.4 mg/kg
P. aeruginosa A20481
  ED50: 0.8 mg/kg
S. pyogenes A-9604
  MIC: 0.008 µg/mL (≈ 0.0239 µM)
P. aeruginosa A-9843a [4]
  ED50: 0.8 mg/kg
S. marcescens A20335
  ED50: 3.3 mg/kg
H. influenzae A-9833
  MIC: 8 µg/mL (≈ 23.9 µM)
In vivo
  NOAEL: > 40 mg/kg
E. cloacae A-9569
  ED50: 0.4 mg/kg
S. aureus A-9537; A9537, + 50% serum
  MIC: 0.03 µg/mL
S. aureus A-9537; A9537, overnight 37° C.
  MIC: 0.008 µg/mL (≈ 0.0239 µM)
[5]; 0-3 hours
  dose excreted at 3 h: 23.3%
[5]; 0-24 hours
  dose excreted at 24 h: 24.2 ± 5.3%
[5]; 3-6 hours
  dose excreted at 6 h: 0.5%
[5]; 6-24 hours
  dose excreted at 24 h: 0.4%
P. vulgaris A21559
  MIC: 0.03 µg/mL (≈ 0.0897 µM)
[6]
  LD50: > 40 mg/kg
P. aeruginosa A20599
  ED50: 3 mg/kg
P. aeruginosa A-9843A [7]
  MIC: 2 µg/mL (≈ 5.98 µM)
S. faecalis A20688; A20688
  MIC: 0.5 µg/mL (≈ 1.5 µM)
[8]; pH 7.4, τ1/2 (half-life)
  half-life at 100 µM: 13.5 h
H. influenzae A21518
  MIC: 8 µg/mL (≈ 23.9 µM)
[9]
  AUC: 6400 ng·h/mL
  half-life: 9 min
P. rettgeri A15167-2
  ED50: 5.7 mg/kg

## C[C@@H](O)[C@H]1C(=O)N2C(C(=O)[O-])=C(SCC[n+]3cccc(N)c3)C[C@H]12 [Example 14, (5R, 6S)-3-[2-(3-aminopyridinio)ethylthio]-6-[1-(R)-hydroxyethyl]-7-oxo-1-azabicyclo[3.2.0]-hept-2-ene-2-carboxylate]
S. marcescens A20019
  MIC: 0.06 µg/mL (≈ 0.172 µM)
[3]; Pen-res, table 6
  MIC: 0.008 µg/mL (≈ 0.0229 µM)
[10]
  MIC: 0.008 µg/mL (≈ 0.0229 µM)
S. pneumoniae A-9585; table 6
  MIC: 0.002 µg/mL (≈ 0.00572 µM)
P. mirabilis A9900
  ED50: 5.4 mg/kg
S. pyogenes A-9604; table 6
  MIC: 0.004 µg/mL (≈ 0.0114 µM)
P. aeruginosa A9843A
  ED50: 0.78 mg/kg
P. mirabilis A-9900 [11]
  MIC: 0.03 µg/mL (≈ 0.0859 µM)
K. pneumoniae A-9664 [12]
  MIC: 0.06 µg/mL (≈ 0.172 µM)
S. aureus A-9537; A9537, 50% serum, table 6
  MIC: 0.016 µg/mL (≈ 0.0458 µM)
S. aureus A-9537; A9537, overnight 37° C., table 6
  MIC: 0.008 µg/mL (≈ 0.0229 µM)
P. vulgaris A21559; table 6
  MIC: 0.016 µg/mL (≈ 0.0458 µM)
M. morganii A15153
  MIC: 0.03 µg/mL (≈ 0.0859 µM)
P. aeruginosa A-9843A [7]; overnight 37° C., table 6, read-out: MIC
  MIC: 2 µg/mL (≈ 5.72 µM)
S. faecalis A20688; A20688, overnight 37° C., table 6, read-out: MIC
  MIC: 0.5 µg/mL (≈ 1.43 µM)
[8]; pH 7.4, t1/2 (half-life)
  half-life: 18.5 h
P. aeruginosa A21213
  MIC: 1 µg/mL (≈ 2.86 µM)

## C[C@@H](O)[C@H]1C(=O)N2C(C(=O)O)=C(SCCN)C[C@H]12 [Thienamycin, thienamycin]
[13]
  activity against various Pseudomonas species: notable activity
